Patent US20230365592A1 (Agios Pharmaceuticals, Inc., priority 2022, published 2023)

Target: T1, human PAH with the R408W mutation (Homo sapiens, UniProt P00439, R408W)
T1 construct: expressed in transfected cells
T1 sequence (P00439 1-452 R408W): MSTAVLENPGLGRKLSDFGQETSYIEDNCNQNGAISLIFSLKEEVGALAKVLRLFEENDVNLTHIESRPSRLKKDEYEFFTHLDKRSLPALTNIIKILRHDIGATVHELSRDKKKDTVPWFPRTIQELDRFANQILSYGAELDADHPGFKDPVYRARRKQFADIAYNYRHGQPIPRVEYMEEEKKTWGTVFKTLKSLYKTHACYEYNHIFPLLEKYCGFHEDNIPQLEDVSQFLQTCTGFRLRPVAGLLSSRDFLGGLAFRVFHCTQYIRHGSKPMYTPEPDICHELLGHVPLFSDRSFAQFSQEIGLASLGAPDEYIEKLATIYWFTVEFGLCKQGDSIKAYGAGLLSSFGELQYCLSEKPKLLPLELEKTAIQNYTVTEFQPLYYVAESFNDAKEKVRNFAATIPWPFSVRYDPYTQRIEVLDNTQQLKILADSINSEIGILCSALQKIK
Assay: Cell Based Phenylalanine Flux Assay;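 also: after compound treatment, cells received sepiapterin plus isotope-labelled Phenylalanine for 4 hours, then labelled Tyrosine in the medium was quantified, 10-point 2-fold dilution series run in duplicate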
Details: A375 cells expressing human PAH R408W; 24 hrs compound incubation; 13C-Tyrosine by LC-MS; average where tested multiple times; read-out: AC50

| SMILES | AC50 |
| --- | --- |
| CC(C)c1cccn2nc([C@H]3c4nc[nH]c4CCN3C(=O)c3nnc(-c4ccccn4)o3)cc12 [Example 1904, (R)-(4-(4-isopropylpyrazolo[1,5-a]pyridin-2-yl)-1,4,6,7-tetrahydro-5H-imidazo[4,5-c]pyridin-5-yl)(5-(pyridin-2-yl)-1,3,4-oxadiazol-2-yl)methanone] | > 5000 nM |
| CC(C)c1cccn2nc([C@@H]3c4nc[nH]c4CCN3C(=O)c3nnc(-c4ccccn4)o3)cc12 [Example 1905, (S)-(4-(4-isopropylpyrazolo[1,5-a]pyridin-2-yl)-1,4,6,7-tetrahydro-5H-imidazo[4,5-c]pyridin-5-yl)(5-(pyridin-2-yl)-1,3,4-oxadiazol-2-yl)methanone] | < 500 nM |
| CC(C)c1cccn2nc([C@H]3c4nc[nH]c4CCN3C(=O)c3nnc(-c4ncccc4F)o3)cc12 [Example 1907, (R)-(5-(3-fluoropyridin-2-yl)-1,3,4-oxadiazol-2-yl)(4-(4-isopropylpyrazolo[1,5-a]pyridin-2-yl)-1,4,6,7-tetrahydro-5H-imidazo[4,5-c]pyridin-5-yl)methanone] | > 5000 nM |
| O=C(c1nnc(C2CC2)o1)N1CCc2[nH]cnc2[C@H]1c1cc2c(Br)cccn2n1 [Example 1908, (S)-(4-(4-bromopyrazolo[1,5-a]pyridin-2-yl)-1,4,6,7-tetrahydro-5H-imidazo[4,5-c]pyridin-5-yl)(5-cyclopropyl-1,3,4-oxadiazol-2-yl)methanone] | < 500 nM |
| O=C(c1nnc(-c2ccccn2)o1)N1CCc2[nH]cnc2[C@H]1c1cc2c(Br)cccn2n1 [Example 1911, (S)-(4-(4-bromopyrazolo[1,5-a]pyridin-2-yl)-1,4,6,7-tetrahydro-5H-imidazo[4,5-c]pyridin-5-yl)(5-(pyridin-2-yl)-1,3,4-oxadiazol-2-yl)methanone] | < 500 nM |
| FC(F)(F)c1ccc(N2CCc3[nH]cnc3[C@H]2c2cc3ccccn3n2)nc1 [Example 1914, (S)-4-(pyrazolo[1,5-a]pyridin-2-yl)-5-(5-(trifluoromethyl)pyridin-2-yl)-4,5,6,7-tetrahydro-1H-imidazo[4,5-c]pyridine] | < 500 nM |
| FC(F)(F)c1ccc(N2CCc3[nH]cnc3[C@@H]2c2cc3ccccn3n2)nc1 [Example 1915, (R)-4-(pyrazolo[1,5-a]pyridin-2-yl)-5-(5-(trifluoromethyl)pyridin-2-yl)-4,5,6,7-tetrahydro-1H-imidazo[4,5-c]pyridine] | > 5000 nM |
| FC(F)c1cccn2nc([C@@H]3c4nc[nH]c4CCN3c3ccc(C(F)(F)F)cn3)cc12 [Example 1916, (S)-4-(4-(difluoromethyl)pyrazolo[1,5-a]pyridin-2-yl)-5-(5-(trifluoromethyl)pyridin-2-yl)-4,5,6,7-tetrahydro-1H-imidazo[4,5-c]pyridine] | < 500 nM |
| FC(F)c1cccn2nc([C@H]3c4nc[nH]c4CCN3c3ccc(C(F)(F)F)cn3)cc12 [Example 1917, (R)-4-(4-(difluoromethyl)pyrazolo[1,5-a]pyridin-2-yl)-5-(5-(trifluoromethyl)pyridin-2-yl)-4,5,6,7-tetrahydro-1H-imidazo[4,5-c]pyridine] | > 5000 nM |
| Cc1cccn2nc([C@@H]3c4nc[nH]c4CCN3C(=O)c3cnc(C4CC4)o3)cc12 [Example 1918, (S)-(2-cyclopropyloxazol-5-yl)(4-(4-methylpyrazolo[1,5-a]pyridin-2-yl)-1,4,6,7-tetrahydro-5H-imidazo[4,5-c]pyridin-5-yl)methanone] | 500 to 1000 nM |
| CCc1cccn2nc([C@@H]3c4nc[nH]c4CCN3C(=O)c3nnc(C(C)(C)F)o3)cc12 [Example 1922, (S)-(4-(4-ethylpyrazolo[1,5-a]pyridin-2-yl)-1,4,6,7-tetrahydro-5H-imidazo[4,5-c]pyridin-5-yl)(5-(2-fluoropropan-2-yl)-1,3,4-oxadiazol-2-yl)methanone] | < 500 nM |
| CCc1cccn2nc([C@H]3c4nc[nH]c4CCN3C(=O)c3nnc(-c4cnn(C)c4)o3)cc12 [Example 1925, (R)-(4-(4-ethylpyrazolo[1,5-a]pyridin-2-yl)-1,4,6,7-tetrahydro-5H-imidazo[4,5-c]pyridin-5-yl)(5-(1-methyl-1H-pyrazol-4-yl)-1,3,4-oxadiazol-2-yl)methanone] | > 5000 nM |

Continued, values first:

| AC50 | SMILES |
| --- | --- |
| > 5000 nM | CCc1cccn2nc([C@H]3c4nc[nH]c4CCN3C(=O)c3nnc(-c4ccn(C)n4)o3)cc12 [Example 1926, (R)-(4-(4-ethylpyrazolo[1,5-a]pyridin-2-yl)-1,4,6,7-tetrahydro-5H-imidazo[4,5-c]pyridin-5-yl)(5-(1-methyl-1H-pyrazol-3-yl)-1,3,4-oxadiazol-2-yl)methanone] |
| 500 to 1000 nM | O=C(c1nnc(-c2cnn(C(F)(F)F)c2)o1)N1CCc2[nH]cnc2[C@H]1c1cc2c(C3CC3)cccn2n1 [Example 1928, (S)-(4-(4-cyclopropylpyrazolo[1,5-a]pyridin-2-yl)-1,4,6,7-tetrahydro-5H-imidazo[4,5-c]pyridin-5-yl)(5-(1-(trifluoromethyl)-1H-pyrazol-4-yl)-1,3,4-oxadiazol-2-yl)methanone] |
| < 500 nM | O=C(c1nnc(-c2ccn(C(F)F)n2)o1)N1CCc2[nH]cnc2[C@H]1c1cc2c(C3CC3)cccn2n1 [Example 1930, (S)-(4-(4-cyclopropylpyrazolo[1,5-a]pyridin-2-yl)-1,4,6,7-tetrahydro-5H-imidazo[4,5-c]pyridin-5-yl)(5-(1-(difluoromethyl)-1H-pyrazol-3-yl)-1,3,4-oxadiazol-2-yl)methanone] |
| > 5000 nM | O=C(c1nnc(-c2ccn(C(F)F)n2)o1)N1CCc2[nH]cnc2[C@@H]1c1cc2c(C3CC3)cccn2n1 [Example 1931, (R)-(4-(4-cyclopropylpyrazolo[1,5-a]pyridin-2-yl)-1,4,6,7-tetrahydro-5H-imidazo[4,5-c]pyridin-5-yl)(5-(1-(difluoromethyl)-1H-pyrazol-3-yl)-1,3,4-oxadiazol-2-yl)methanone] |
| > 5000 nM | Cc1cc(-c2nnc(C(=O)N3CCc4[nH]cnc4[C@@H]3c3cc4c(C5CC5)cccn4n3)o2)nn1C [Example 1932, (R)-(4-(4-cyclopropylpyrazolo[1,5-a]pyridin-2-yl)-1,4,6,7-tetrahydro-5H-imidazo[4,5-c]pyridin-5-yl)(5-(1,5-dimethyl-1H-pyrazol-3-yl)-1,3,4-oxadiazol-2-yl)methanone] |
| 500 to 1000 nM | Cc1cc(-c2nnc(C(=O)N3CCc4[nH]cnc4[C@H]3c3cc4c(C5CC5)cccn4n3)o2)nn1C [Example 1933, (S)-(4-(4-cyclopropylpyrazolo[1,5-a]pyridin-2-yl)-1,4,6,7-tetrahydro-5H-imidazo[4,5-c]pyridin-5-yl)(5-(1,5-dimethyl-1H-pyrazol-3-yl)-1,3,4-oxadiazol-2-yl)methanone] |
| < 500 nM | CC(C)c1cccn2nc([C@@H]3c4nc[nH]c4CCN3C(=O)c3nnc(-c4cnccn4)o3)cc12 [Example 1934, (S)-(4-(4-isopropylpyrazolo[1,5-a]pyridin-2-yl)-1,4,6,7-tetrahydro-5H-imidazo[4,5-c]pyridin-5-yl)(5-(pyrazin-2-yl)-1,3,4-oxadiazol-2-yl)methanone] |
| 1000 to 5000 nM | CC(C)c1cccn2nc([C@H]3c4nc[nH]c4CCN3C(=O)c3nnc(-c4cnn(C(F)F)c4)o3)cc12 [Example 1937, (R)-(5-(1-(difluoromethyl)-1H-pyrazol-4-yl)-1,3,4-oxadiazol-2-yl)(4-(4-isopropylpyrazolo[1,5-a]pyridin-2-yl)-1,4,6,7-tetrahydro-5H-imidazo[4,5-c]pyridin-5-yl)methanone] |
| > 5000 nM | Cc1cccn2nc([C@H]3c4nc[nH]c4CCN3c3ccc(C(F)(F)F)cn3)cc12 [Example 1940, (R)-4-(4-methylpyrazolo[1,5-a]pyridin-2-yl)-5-(5-(trifluoromethyl)pyridin-2-yl)-4,5,6,7-tetrahydro-1H-imidazo[4,5-c]pyridine] |
| < 500 nM | Cc1cccn2nc([C@@H]3c4nc[nH]c4CCN3c3ccc(C(F)(F)F)cn3)cc12 [Example 1941, (S)-4-(4-methylpyrazolo[1,5-a]pyridin-2-yl)-5-(5-(trifluoromethyl)pyridin-2-yl)-4,5,6,7-tetrahydro-1H-imidazo[4,5-c]pyridine] |
| < 500 nM | Fc1cccn2nc([C@@H]3c4nc[nH]c4CCN3c3ccc(C(F)(F)F)cn3)cc12 [Example 1943, (S)-4-(4-fluoropyrazolo[1,5-a]pyridin-2-yl)-5-(5-(trifluoromethyl)pyridin-2-yl)-4,5,6,7-tetrahydro-1H-imidazo[4,5-c]pyridine] |
| < 500 nM | Cc1cccn2nc([C@@H]3c4nc[nH]c4CCN3C(=O)c3ocnc3C3CC3)cc12 [Example 1944, (S)-(4-cyclopropyloxazol-5-yl)(4-(4-methylpyrazolo[1,5-a]pyridin-2-yl)-1,4,6,7-tetrahydro-5H-imidazo[4,5-c]pyridin-5-yl)methanone] |
| 1000 to 5000 nM | Cc1cccn2nc([C@H]3c4nc[nH]c4CCN3C(=O)c3ocnc3C3CC3)cc12 [Example 1945, (R)-(4-cyclopropyloxazol-5-yl)(4-(4-methylpyrazolo[1,5-a]pyridin-2-yl)-1,4,6,7-tetrahydro-5H-imidazo[4,5-c]pyridin-5-yl)methanone] |
| < 500 nM | CC(C)c1cccn2nc([C@@H]3c4nc[nH]c4CCN3C(=O)c3nnc(-c4cnn(C(F)(F)F)c4)o3)cc12 [Example 1946, (S)-(4-(4-isopropylpyrazolo[1,5-a]pyridin-2-yl)-1,4,6,7-tetrahydro-5H-imidazo[4,5-c]pyridin-5-yl)(5-(1-(trifluoromethyl)-1H-pyrazol-4-yl)-1,3,4-oxadiazol-2-yl)methanone] |
